According to patent US11485737B2, “Diaryl substituted 5,5-fused ring compounds as C5aR inhibitors” (CHEMOCENTRYX, INC., priority 2017, dated 2022):

biological target: T1, C5aR (Homo sapiens, UniProt P21730); assay: Chemotaxis assay using U937 cells (C5a-induced migration); format: cell-based; details: chemotaxis (migration) of U937 cells towards C5a; read-out: Mig IC50
T1 construct: U937 cells are a monocytic cell line which express C5aR; host or cells: U937 cells (cAMP-treated overnight)
T1 sequence (P21730 1-350): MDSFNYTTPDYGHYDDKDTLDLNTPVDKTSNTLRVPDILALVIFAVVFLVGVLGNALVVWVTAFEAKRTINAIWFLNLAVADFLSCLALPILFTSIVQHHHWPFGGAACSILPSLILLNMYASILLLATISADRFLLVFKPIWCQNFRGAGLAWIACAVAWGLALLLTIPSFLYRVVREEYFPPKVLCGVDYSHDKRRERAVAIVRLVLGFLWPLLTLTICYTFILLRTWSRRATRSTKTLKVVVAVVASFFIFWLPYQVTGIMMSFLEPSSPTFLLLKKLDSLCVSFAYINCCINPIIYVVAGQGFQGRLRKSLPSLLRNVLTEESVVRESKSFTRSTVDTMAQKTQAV
Method: U937 cells are a monocytic cell line which express C5aR, and are available from ATCC (VA). These cells were cultured as a suspension in RPMI-1640 medium supplemented with 2 mM L-glutamine, 1.5 g/L sodium bicarbonate, 4.5 g/L glucose, 10 mM HEPES, 1 mM sodium pyruvate, and 10% FBS. Cells were grown under 5% CO2/95% air, 100% humidity at 37° C. and subcultured twice weekly at 1:6 (cells were cultured at a density range of 1×10^5 to 2×10^6 cells/mL) and harvested at 1×10^6 cells/mL. Prior to assay, cells are treated overnight with 0.5 mM of cyclic AMP (Sigma, OH) and washed once prior to use. cAMP treated U937 cells can be used in C5aR ligand binding and functional assays.
Optionally, compounds may be further assayed for their ability to inhibit chemotaxis in cells. Chemotaxis assays are performed using 5 μm pore polycarbonate, polyvinylpyrrolidone-coated filters in 96-well chemotaxis chambers (Neuroprobe; Gaithersburg, Md.) using chemotaxis buffer (Hank's balanced salt solution (HBSS) and 1% FBS). C5aR ligands (i.e., C5a, R&D Systems; Minneapolis, Minn.) are use to evaluate compound mediated inhibition of C5aR mediated migration. Other chemokines (i.e., SDF-1α; R&D Systems; Minneapolis, Minn.) are used as specificity controls. The lower chamber is loaded with 29 μl of chemokine (i.e., 0.03 nM C5a) and varying amounts of compound; the top chamber contains 100,000 U937 or neutrophil cells in 20 μl. The chambers are incubated 1.5 hours at 37° C., and the number of cells in the lower chamber quantified either by direct cell counts in five high powered fields per well or by the CyQuant assay (Molecular Probes), a fluorescent dye method that measures nucleic acid content and microscopic observation.
The compounds in Table 1, below, were prepared using the methods described above. Characterization data is provided for each compound listed. Activity is provided as follows for the chemotaxis assay using U937 cells as described herein (Example 7): +, 500 nM<IC50; ++, 50 nM<IC50<500 nM; +++, 5 nM<IC50<50 nM; and ++++, IC50<5 nM.

SMILES | IC50 [nM]
CNc1ccc(-c2c3c(nn2-c2c(C)cccc2C)CN(c2cc(C(C)(C)C)ccc2C)C3)cc1 [Compound 1.050] | > 500
COc1cccc(C)c1-n1nc2c(c1-c1ccc(NC(N)=O)cc1)CN(c1cc(C(C)(C)C)ccc1C)C2 [Compound 1.052] | > 500
COc1cccc(C)c1-n1nc2c(c1-c1ccc(N)cc1)CN(c1cc(C(C)(C)C)ccc1C)C2 [Compound 1.055] | 5 to 50

Second part, the compound after the results:

IC50 [nM] | SMILES
< 5 | Cc1ccc(C(C)(C)C)cc1N1Cc2nn(-c3c(C)cccc3C)c(-c3ccc(N)cc3)c2C1 [Compound 1.051]
5 to 50 | CCCOc1cccc(C)c1-n1nc2c(c1-c1ccc(N)cc1)CN(c1cc(C(C)(C)C)ccc1C)C2 [Compound 1.053]
5 to 50 | CCOc1cccc(C)c1-n1nc2c(c1-c1ccc(N)cc1)CN(c1cc(C(C)(C)C)ccc1C)C2 [Compound 1.054]
